Series [1] in a line: Water-solubility of acetohexamide alone or combined with β-CyD-G2-COONa or β-CyD (Example 13). The series is classed as physicochemical. The conditions noted are these: with β-CyD-G2-COONa or β-CyD 1:1 (molar ratio), as Example 12, powder 100 mg + water 1 ml; alone: 25 °C, 6 hours; ultraviolet spectrophotometer; read-out: solubilities of acetohexamide.
Procedure: Separately, powder was obtained by the same operation except using β-CyD instead of the above β-CyD-G2-COONa. Water (1 ml) was added to each powder (100 mg) thus obtained to dissolve it. On the other hand, acetohexamide alone was added to water, and the mixture was vigorously shaken at 25 °C for 6 hours and filtered through a membrane filter of 0.22 µm. The acetohexamide in the above filtrate was determined with an ultraviolet spectrophotometer (Shimadzu Corp., UV-240).
Series [2] is described as follows: Water-solubility of the antifungal agent alone or combined with β-CyD-G2-COONa or β-CyD (Example 4). It counts as physicochemical. As to conditions: triazolone antifungal agent in water; with β-CyD-G2-COONa or β-CyD 1:2 (molar ratio), lyophilized powder; as Example 1; read-out: solubilities of the antifungal agent. As to the method: (§1) The antineoplastic agent 6-O-(N-chloroacetylcarbamoyl)fumagillol (100 mg) was dissolved in ethanol (4 ml). […] The aqueous solution was added to the ethanol solution and mixed with it with stirring. The resulting solution was lyophilized in vacuo to give powder. Water (1 ml) was added to the powder (100 mg) to obtain a homogeneous aqueous solution, i.e., a composition of the present invention.
(§2) On the other hand, the antineoplastic agent alone was added to water, and the mixture was vigorously shaken at 25 °C for 4 hours and filtered through a membrane filter of 0.22 µm.
(§3) The antineoplastic agent in the above homogeneous aqueous solution and filtrate was determined by high performance liquid chromatography (HPLC). As a result, the solubilities in Table 1 were obtained.
Likewise, lyophilized powder was obtained from the antifungal agent and β-cyclodextrin (β-CyD)(the antifungal agent : β-CyD = 1:2 (molar ratio)). […]

A short description of series [3]: Water-solubility of the antineoplastic agent alone or combined with β-CyD-G2-COONa or β-CyD (Example 1, HPLC). The series is classed as physicochemical. The conditions noted are these: 6-O-(N-chloroacetylcarbamoyl)fumagillol in water, with β-CyD-G2-COONa or β-CyD 1:2 (mol ratio), lyophilized powder 100 mg + water 1 ml, alone: shaken at 25 °C for 4 hours, 0.22 µm filter, read-out: solubilities of the antineoplastic agent. As to the method:
as §1, §2, §3

The nature of series [4]: Water-solubility of the antineoplastic agent alone or combined with α-CyD-G2-COONa or α-CyD (Example 2, HPLC). The series is classed as physicochemical. The conditions noted are these: 6-O-(N-chloroacetylcarbamoyl)fumagillol in water, with α-CyD-G2-COONa or α-CyD 1:2 (mol ratio), lyophilized powder 100 mg + water 1 ml, alone: shaken at 25 °C for 4 hours, 0.22 µm filter, read-out: solubilities of the antineoplastic agent. Here is the method: The aqueous solution was added to the ethanol solution and mixed with it with stirring. The resulting solution was lyophilized in vacuo to give powder. Water (1 ml) was added to the powder (100 mg) to obtain a homogeneous aqueous solution, i.e., a composition of the present invention. On the other hand, the antineoplastic agent alone was added to water, and the mixture was vigorously shaken at 25 °C for 4 hours and filtered through a membrane filter of 0.22 µm.
The antineoplastic agent in the above homogeneous aqueous solution and filtrate was determined by high performance liquid chromatography (HPLC). As a result, the solubilities in Table 2 were obtained.

A short description of series [5]: Water-solubility of the cephalosporin antibiotic alone or combined with β-CyD-G2-COONa or β-CyD (Example 3, HPLC). The series is classed as physicochemical. As to conditions: cephalosporin antibiotic (free form) in water, with β-CyD-G2-COONa or β-CyD 1:2 (mol ratio), lyophilized powder 100 mg + water 1 ml, alone: shaken at 25 °C for 8 hours, read-out: solubilities of the antibiotic. Here is the method:
The aqueous solution was added to the ethanol solution and mixed with it with stirring. The resulting solution was lyophilized in vacuo to give powder. Water (1 ml) was added to the powder (100 mg) to obtain a homogeneous aqueous solution, i.e., a composition of the present invention. On the other hand, the antibiotic alone was added to water, and the mixture was vigorously shaken at 25 °C for 8 hours and filtered through a membrane filter of 0.22 µm.
The antibiotic in the above homogeneous aqueous solution and filtrate was determined by high performance liquid chromatography (HPLC). As a result, the solubilities in Table 3 were obtained.

Series [6] is described as follows: Water-solubility of clofibrate alone or combined with β-CyD-G2-COONa or β-CyD (Example 5). The series is classed as physicochemical. The conditions noted are these: in water; with β-CyD-G2-COONa or β-CyD 1:2 (molar ratio), lyophilized powder; as Example 1; read-out: solubilities of clofibrate. As to the method:
as §1, §2, §3
Likewise, lyophilized powder was obtained from clofibrate and β-cyclodextrin (β-CyD) (clofibrate : β-CyD = 1:2 (molar ratio)). […]

Series [7] can be described thus: Water-solubility of flufenamic acid alone or combined with β-CyD-G2-COONa or β-CyD (Example 7). The series is classed as physicochemical. The conditions noted are these: flufenamic acid about 6 mg; as Example 6 (cyclodextrin 75 mg in water 5 ml, 25°C, 8 hours).
Procedure: (§4) Sodium6-O-cyclomaltoheptaosyl-(6→1)-O-α-D-glucosyl-(4→1)-O-α-D-glucuronate (β-CyD-G2-COONa)(75 mg) was dissolved in water (5 ml).
Series [8] in a line: Water-solubility of griseofulvin alone or combined with β-CyD-G2-COONa or β-CyD (Example 12, milling, spectrophotometry). The series is classed as physicochemical. The conditions noted are these: with β-CyD-G2-COONa or β-CyD 1:1 (molar ratio), shaken in tumbler pulverizer with a small amount of water, lyophilized, powder 100 mg + water 1 ml, alone: 25°C, 6 hours, read-out: solubilities of griseofulvin.
Procedure: Water (1 ml) was added to each powder (100 mg) thus obtained to obtain an aqueous solution thereof. On the other hand, griseofulvin alone was added to water, and the mixture was vigorously shaken at 25°C for 6 hours and filtered through a membrane filter of 0.22 µm.
The griseofulvin in the above filtrate was determined by spectrophotometry (Shimadzu Corp., UV-240 spectrophotometer).

Series [9] can be described thus: Water-solubility of indomethacin alone or combined with β-CyD-G2-COONa or β-CyD (Example 11). The source says:
The results are in Table 11. Table 11

A short description of series [10]: Water-solubility of phenytoin alone or combined with β-CyD-G2-COONa or β-CyD (Example 9).
Procedure: as §4
A short description of series [11]: Water-solubility of testosterone alone or combined with α-CyD-G2-COONa or α-CyD (Example 14). The series is classed as physicochemical. As to conditions: testosterone about 4 mg, α-CyD-G2-COONa or α-CyD 75 mg in water 5 ml, shaken at 25°C for 8 hours; ultraviolet spectrophotometer; read-out: solubilities of testosterone. Here is the method: The same operations were carried out using α-cyclodextrin (α-CyD) instead of α-CyD-G2-COONa or using testosterone alone. The concentration of testosterone dissolved in the resulting filtrate was determined with an ultraviolet spectrophotometer (Shimadzu Corp., UV-240).

Series [12] is described as follows: Water-solubility of testosterone alone or combined with β-CyD-CH2CH(OH)-COONa or β-CyD (Example 15). It counts as physicochemical. As to conditions: testosterone about 4 mg, β-CyD-CH2CH(OH)-COONa or β-CyD 75 mg in water 5 ml, shaken at 25°C for 8 hours; ultraviolet spectrophotometer; read-out: solubilities of testosterone. As to the method: The same operations were carried out using β-CyD instead of β-CyD-CH2CH(OH)-COONa or using testosterone alone. The concentration of testosterone dissolved in the resulting filtrate was determined with an ultraviolet spectrophotometer (Shimadzu Corp., UV-240).

A short description of series [13]: Water-solubility of testosterone alone or combined with β-CyD-G2-COONa or β-CyD (Example 8).
Procedure: as §4
The conditions of series [14]: water, 8 h. From the text:
The results are in Table 10. Table 10

For the compound `CC(=O)c1ccc(S(=O)(=O)NC(=O)NC2CCCCC2)cc1` [Acetohexamide alone, acetohexamide], the solubility in series [1] is 28.1 µg/mL.
With `C[C@@H](n1ncn(-c2ccc(OCC(F)(F)C(F)F)cc2)c1=O)[C@](O)(Cn1cncn1)c1ccc(F)cc1F` [Antifungal agent alone, 2-[(1R,2R)-2-(2,4-difluorophenyl)-2-hydroxy-1-methyl-3-(1H-1,2,4-triazol-1-yl)propyl]-4-[4-(2,2,3,3-tetrafluoropropoxy)phenyl]-3-(2H,4H)-1,2,4-triazolone], the solubility in series [2] worked out at 5 µg/mL.
`COC1C(OC(=O)NC(=O)CCl)CCC2(CO2)C1C1(C)OC1CC=C(C)C` (centres unmarked) [Antineoplastic agent alone]: the solubility in series [3] was 1800 µg/mL; in series [4] it was 1800 µg/mL; in [5], 2500 µg/mL.
Take `CCOC(=O)C(C)(C)Oc1ccc(Cl)cc1` [Clofibrate agent alone, clofibrate]: the solubility in series [6] came to 82 µg/mL.
On to `O=C(O)c1ccccc1Nc1cccc(C(F)(F)F)c1` [Flufenamic acid alone, flufenamic acid], for which, in series [7], the “solubilities of flufenamic acid” value amounted to 0.074 mg/mL.
In the case of `COC1=CC(=O)C[C@@H](C)[C@]12Oc1c(Cl)c(OC)cc(OC)c1C2=O` [Griseofulvin alone, griseofulvin], in series [8], the solubility was found to be 23 µg/mL.
For `COc1ccc2c(c1)c(CC(=O)O)c(C)n2C(=O)c1ccc(Cl)cc1` [Indomethacin alone, indomethacin], in series [9], the solubility at 8 h is 23 µg/mL.
Take `O=C1NC(=O)C(c2ccccc2)(c2ccccc2)N1` [Phenytoin alone, phenytoin]: the solubility at 8 h in series [10] was 27 µg/mL.
In the case of `C[C@]12CC[C@H]3[C@@H](CCC4=CC(=O)CC[C@@]43C)[C@@H]1CC[C@@H]2O` [Testosterone alone, testosterone], the solubility at 8 h in series [11], in series [12] and in series [13] was 29 µg/mL each time.
As to vitamin K2 [Vitamin K2 alone], the “solubilities of vitamin K2” value in series [14] came out at 0.0005 µg/mL.
